What was measured:
[1] = Cyclic voltammetry in aqueous media (redox potential); assay type: physicochemical; settings: for E1/2 (reduction potential): room temperature, saturated calomel reference, scan rate 0.4 V/s
Procedure: The anthracene 9,10-dione moiety is known to undergo redox processes. The results of cyclic voltammetry measurements in aqueous media are reported in FIG. 1 and summarized as reduction potentials in Table 1.
Cyclic voltammetry (CV) measurements were performed at room temperature using an Amel scanning potentiostat at the following settings: Initial potential -0.1 V, switching potential […], scan rate 0.4 V/s. A three electrode system was used with a reference saturated calomel electrode and a platinum wire counter electrode; a hanging mercury drop electrode (HMDE, Metrohm) was the working electrode.

[2] = system: heart; assay: Histopathological evaluation of potential cardiotoxic effect in nude mice during antitumor activity tests (MX-1 bearing); assay type: in vivo, mouse (CD1 Nu/Nu female); settings: for cardiotoxicity (conclusion): antitumor protocol, equiactive doses
Procedure: During an antitumor activity experiment histopathologic examination was carried out on plastic sections (blue toluidine stained) of hearts of some animals sacrificed at the end of the observation period.
In this experiment (Table 2) CD1 Nu/Nu female mice (8 animals/groups) were transplanted sc with tumor fragments of human mammary carcinoma MX-1. BBR 2778 (60 mg/kg/day) and mitoxantrone (4.5 mg/kg/day) (i.e., at their equiactive doses) were i.v. given once a week for three weeks when tumor weight reached an average of 100-200 mg; animals were sacrificed 60 days after the last treatment.
Myocardial lesions were scored according to Bertazzoli, C. et al. (1979) Cancer Treat., Rep.: 63, 1877-1883. Briefly, lesions are scored as follows:
1: sarcoplasmatic microvacuolizations and/or inclusions, and either interstitial or cellular edema;
2: as in 1 plus either sarcoplasmatic macrovacuolizations or one or more of atrophy, necrosis, fibrosis, endocardial lesions and thrombi;
0.5: less than 10 single altered myocytes in the whole heart section;
1: scattered single altered myocytes (>10);
2: scattered small groups of altered myocytes;
3: widely spread small groups of altered myocytes;
4: confluent groups of altered myocytes;
The product of severity degree (1 or 2) times the extension degree (from 0 to 5) gives the T.C.S. (total cardiotoxicity score, graded from 0 to 10) for each animal. Mean Total Score (M.T.S.) for each group is calculated from T.C.S. of all the group animals.

[3] = system: heart; assay: Single dose cardiotoxicity in i.v. treated rats (Study No. 1); assay type: in vivo, rat (S.D. Crl:CDBR, male); settings: 6 weeks; for Heart Weight (%): control 100
Excerpt: (§1) In the rat (Study No. 1, Table No. 3), the respective effects on the myocardium of BBR 2778 and mitoxantrone were compared. Both drugs were i.v. administered in single equitoxic doses (LD10). In the mouse (Study No. 2, Table No. 4), the respective effects on the myocardium of BBR 2778, mitoxantrone, and doxorubicin, using multiple i.v. equiactive doses with similar activity on solid tumors, were compared. Also in the mouse, in a different study (Study No. 3, Table No. 5), the respective effect on the myocardium of i.v. BBR 2778 dose-active range on murine leukemia was compared with mitoxantrone.
(§2) Cardiac lesions in the three studies were evaluated in accordance with a qualitative/quantitative method expressly devised for anthracyclines (Bertazzoli C. et al. Cancer Treat. Rep. 63:1877-1883, 1979; Solcia E. et al. Tumori, 67:461-472, 1981).
Strain: S.D. (Crl:CDBR)
mixtoxantrone 4.9 mg/kg
(§3) heart weight and microscopic lesions
paraffin sections of heart (formalin fixed
and haematoxilineos in stained) collected 6
(§4) the product of severity degree (1 or 2)
(§5) times the extension degree (from 0 to 5)
(§6) gives the T.C.S. (Total Cardiotoxicity
(§7) Score, graded from 0 to 10) for each
(§8) animal. M.T.S. (Mean Total Score) for each
(§9) group is calculated from the T.C.S. of all

[4] = system: leukemia; assay: Previous antitumor activity studies against leukemia in CD2F1 mice; assay type: in vivo, mouse (CD2F1); settings: BBR 2778 12 mg/kg/day, mitoxantrone 3 mg/kg/day i.v.
[5] = system: heart; assay: Cardiotoxic effects (general statement of the invention); settings: in vivo
[6] = system: heart; assay: Multiple dose cardiotoxicity in i.v. treated mice (Study No. 2); assay type: in vivo, mouse (C57BL/6NCrlBR, female)
Excerpt: as §1, §2, §3
(§10) plastic sections of heart (formalin fixed
and blue toluidine stained) collected 60
and 90 days from the first treatment
as §4, §5, §6, §7, §8, §9

[7] = system: heart; assay: Multiple dose cardiotoxicity in i.v. treated mice (Study No. 3); assay type: in vivo, mouse (CD1, female)
Excerpt: as §1, §2
______________________________________
mixtoxantrone 1.1, 1.8 & 2.5
Treatment: twice a week for 5 weeks (10 dosing)
low- and mid- dose treated groups;
twice a week for 4 weeks (7 dosing) in high-
dose treated groups. In these groups, the
administration was suspended because of the
high-dose treated group.
as §10
and blue toluidine stained) collected 78
and 139 days from the first administration
as §4, §5, §6, §7, §8, §9

[8] = system: bone marrow; assay: Myelotoxicity study (RBC, WBC, PLT counts); assay type: in vivo, mouse (CD2F1, male); settings: 3 mg/kg/day i.v. days 1, 4, 7; at nadir day
Procedure: Using CD2F1 mice, the respective effects on the bone marrow of BBR 2778 and mitoxantrone were compared. The drugs were administered i.v. in multiple doses.
Compounds: BBR 2778 12 mg/kg/day
mixtoxantrone 3 mg/kg/day
Parameters: red blood cells (RBC), white blood cells
Equipment: Delcon Cellanalyzer CA580A

[9] = polarographic; Showalter et al 1986; cited from earlier work
[10] = system: human liver; settings: metabolic reduction by NADPH; cited from earlier work
[11] = equivalent concentrations; cited from earlier work
[12] = system: tumors; settings: cited from earlier work; for cardiac toxicity (background): clinical / background; for antitumor activity: in vivo
[13] = system: myocardium; settings: mice; cited from earlier work
[14] = cyclic voltammetry, aqueous media
[15] = 65.1 mg/kg i.v. single dose (LD10)
[16] = 4.9 mg/kg i.v. single dose (LD10)
[17] = 3 mg/kg i.v., cumulative 12 mg/kg, 60 days after first administration
[18] = 3 mg/kg i.v., cumulative 12 mg/kg, 90 days after first administration
[19] = 4 mg/kg i.v., cumulative 16 mg/kg, 60 days after first administration
[20] = 4 mg/kg i.v., cumulative 16 mg/kg, 90 days after first administration
[21] = 6 mg/kg i.v., cumulative 24 mg/kg, 60 days after first administration
[22] = 6 mg/kg i.v., cumulative 24 mg/kg, 90 days after first administration
[23] = 7.5 mg/kg i.v., cumulative 30 mg/kg, 60 days after first administration
[24] = 7.5 mg/kg i.v., cumulative 30 mg/kg, 90 days after first administration

## NCCNc1ccc(NCCN)c2c1C(=O)c1ccncc1C2=O.O=C(O)/C=C\C(=O)O.O=C(O)/C=C\C(=O)O [BBR 2778, 6,9-bis[(2-aminoethyl)amino]benzo[g]isoquinoline-5,10-dione dimaleate]
[1]; [14]
  redox process: reversible
  E1/2 (reduction potential): -0.54
[1]; vs mitoxantrone
  reduction potential lower than for mitoxantrone (difference): 0.2-0.3 V
[2]
  cardiotoxicity (conclusion): does not exert significant cardiotoxicity patterns
[3]; [15]
  M.T.S. (Mean Total Score): 0
  No. affect. hearts / No. exam. hearts: 1/9
  Heart Weight (%): -6%
[4]
  antitumor efficacy against leukemia at the dose and schedule employed: equally effective
[5]
  cardiotoxic effects: devoid of cardiotoxic effects

## O=C1c2c(O)ccc(O)c2C(=O)c2c(NCCNCCO)ccc(NCCNCCO)c21 [Mitoxantrone]
[1]; [14]
  E1/2 (reduction potential): -0.74
[2]; 4.5 mg/kg/day i.v. q7d × 3
  No. affect. hearts / No. exam. hearts: 5/5
[2]
  cardiotoxicity (conclusion): strongly cardiotoxic
[3]; [16]
  M.T.S. (Mean Total Score): 6
  No. affect. hearts / No. exam. hearts: 7/7
  Heart Weight (%): -44%
[6]; [17]
  M.T.S.: 1.4
  No. affect. hearts / No. exam. hearts: 6/6
[6]; [18]
  M.T.S.: 2.6
  No. affect. hearts / No. exam. hearts: 5/5
[6]; [19]
  M.T.S.: 1.25
  No. affect. hearts / No. exam. hearts: 6/6
[6]; [20]
  M.T.S.: 2.5
  No. affect. hearts / No. exam. hearts: 6/6
[7]; 1.1 mg/kg i.v., cumulative 11 mg/kg, 78 days after first administration
  M.T.S.: 4
[7]; 1.1 mg/kg i.v., cumulative 11 mg/kg, 139 days after first administration
  M.T.S.: 6
[7]; 1.8 mg/kg i.v., cumulative 18 mg/kg, 78 days after first administration
  M.T.S.: 6.5
[7]; 1.8 mg/kg, 139 days (footnote diamond-solid)
  Total cardiotoxicity score: 8
[7]; 2.5 mg/kg i.v., cumulative 17.5 mg/kg, 78 days after first administration
  M.T.S.: 7.1
[7]; 2.5 mg/kg i.v., cumulative 17.5 mg/kg, 139 days after first administration
  No. affect. hearts / No. exam. hearts: 0/0
[7]; affected hearts marked °: 1.1 mg/kg 78 and 139 days, 1.8 and 2.5 mg/kg 78 days
  Total cardiotoxicity score: 3-8
[7]; high dose (2.5 mg/kg/day), administration suspended after 7 dosings
  mortality rate: high mortality rate
[8]
  leukopenia vs. controls: 70%
[4]
  antitumor efficacy against leukemia at the dose and schedule employed: equally effective
[9]
  E1/2: -0.775 V
[10]
  microsomal O2.^- formation: does not result in a significant increase in microsomal O2.^- formation
[11]
  in vitro efficacy relative to doxorubicin: higher efficacy than doxorubicin at equivalent concentrations
[12]
  cardiac toxicity (background): diminished cardiotoxicity when compared to doxorubicin
[12]; clinical studies
  toxic side effects in clinical studies relative to doxorubicin: far less toxic side effects than those resulting from doxorubicin therapy
[13]
  focal myocardial damage (histology): high incidence of focal myocardial damage in mice similar to that observed with doxorubicin

## COc1cccc2c1C(=O)c1c(O)c3c(c(O)c1C2=O)C[C@@](O)(C(C)=O)C[C@@H]3O[C@H]1C[C@H](N)[C@H](O)[C@H](C)O1 [daunorubicin]
[9]
  E1/2: -0.625 V
[12]
  cardiac toxicity (background): severe cumulative and irreversible cardiac toxicity
  antitumor activity: outstanding antitumor activity

## COc1cccc2c1C(=O)c1c(O)c3c(c(O)c1C2=O)C[C@@](O)(C(=O)CO)C[C@@H]3O[C@H]1C[C@H](N)[C@H](O)[C@H](C)O1 [Doxorubicin]
[6]; [21]
  M.T.S.: 1
  No. affect. hearts / No. exam. hearts: 6/6
[6]; [22]
  M.T.S.: 1.1
  No. affect. hearts / No. exam. hearts: 6/6
[6]; [23]
  M.T.S.: 1.5
  No. affect. hearts / No. exam. hearts: 6/6
[6]; [24]
  M.T.S.: 2.2
  No. affect. hearts / No. exam. hearts: 6/6
[12]
  cardiac toxicity (background): severe cumulative and irreversible cardiac toxicity
  antitumor activity: outstanding antitumor activity

## O=C1c2ccccc2C(=O)c2c(NCCNCCO)ccc(NCCNCCO)c21 [Ametantrone]
[1]; [14]
  E1/2 (reduction potential): -0.68
[12]
  antitumor activity: significant antitumor activity

## NCCNc1ccc(NCCN)c2c1C(=O)c1ccncc1C2=O [6,9-bis[(2-aminoethyl)amino]benzo[g]isoquinoline-5,10-dione]
[5]
  cardiotoxic effects: devoid of cardiotoxic effects
